Each block holds one molecule with its values, some of them ahead of it.
Tests used:
[1] = test system: IL-1β release in U937 cells after NLRP3 activation; assay: IC50 determination of IL-1β release inhibition in U937 cells; assay type: cell-based; conditions: Homo sapiens, U-937; PMA-differentiated U937 cells, LPS priming 5 h, nigericin; average of at least three experiments; read-out: IL-1β IC50 (nM) U937 cells
Description: Example 79: IC50 Determination of IL-1β Release Inhibition in U937 Cells The compounds of the present disclosure were tested for their ability to inhibit the IL-1β release in the U937 cells after NLRP3 activation. U937 cells (U-97 CRL 1593.2) were thawed following ATCC's initial culture procedure. […] The growth medium was composed of RPMI1640 medium (Quality Biological 112-040-101), 10% serum (Corning 35-076-CV), Pen/Strep (GIBCO 15140-122), 10 mM Hepes (Quality Biological 118-089-721), 2 mM Glutamax (GIBCO 35050-061), and 100 μg/mL normocin (Invivogen ant-nr)-Differentiating media was prepared by adding Phorbol 12-myristate 13-acetate (PMA) (AdipoGen AG-CN2-0010-M005) to growth medium. A cell suspension was prepared with differentiating media at 500k cells/ml. With an electronic pipet, 200 ul of cell suspension was added to each well (96w white plate Corning 3903) leaving columns 1 and 2 empty. Plates were left in the biosafety cabinet for 15 min and then placed in incubator for 90 hours. Priming media was prepared with assay medium consisting of RPMI 1640 medium, 10 mM Hepes, 2 mM Glutamax and Pen/Strep plus 1 μg/mL LPS (Invivogen tlrl-3pelps). Differentiating media was manually removed and 80 ul of priming media was added to each well with an electronic pipet. The plates were placed in the incubator for 5 hours. […] DMSO). An hour prior to the end of LPS incubation, a separate 96 deep well plate, Plate B, was prepared with 400 μL of assay media per well, then […] of the stock DMSO solution from Plate A was added to each corresponding well. Plate B was covered to avoid media evaporation. In a 50 mL tube, a solution of nigericin in assay media at 50 uM/mL concentration was prepared. To a new 96 deep well plate, Plate C, 200 μL of this nigericin containing media was dispensed to each well and 1 μL of the test compounds from Plate B to each corresponding well was added. Plate C was covered to avoid media evaporation. After 5 hours of priming, all the media from the LPS treated U937 cells was removed manually. To this plate of primed cells, 80 μL/well test compounds from Plate B (assay media+compound) was added in duplicate columns (5 compounds tested per plate). The plate was placed in an incubator for 30 min. […] The plate was placed back in the incubator for 1 hour. At the end of 1 hour, the supernatant from this test plate was transferred to a new 96 well V bottom polypropylene plate which was frozen immediately at -80° C. The plate was transferred to -20° C. the next day and awaited further determination of cytokine IL-Ip level. The release of IL-1β into the cell media was determined by MSD® Multi-Spot Assay System (V-Plex, IL-1B kit, […]-4). Following the manufacture's protocol and using the Alternate Protocol 3, Dilute-In-Plate protocol specifically, the level of IL-IP in the above collected supernatant plate was measured as electrochemiluminescent signals. Using MSD DISCOVERY WORKBENCH® analysis software, the signals were converted to the concentration of IL-1β in each well. The IC50 values of the compounds were calculated using the Graph Pad Prism software based on the IL-1β concentration determined. The detection range of IL-1β using MSD kit was approximately […] (based on various lots of standards purchased from MSD).

[2] = test system: IL-1β release in THP-1-ASC-GFP cells after NLRP3 activation; assay: IC50 determination of IL-1β release inhibition in THP-1-ASC-GFP cells; assay type: cell-based; conditions: THP1-ASC-GFP; THP-1-ASC-GFP cells, LPS priming 4 h, nigericin; average of at least three experiments; read-out: IL-1β IC50 (nM) THP1 cells
Description: Example 78: IC50 Determination of IL-1β Release Inhibition in THP-1-ASC-GFP Cells The compounds were tested for their ability to inhibit the IL-1β release in the THP-1-ASC-GFP cells after NLRP3 activation. THP1-ASC-GFP cells (Invivogen […] thawed following Invivogen's initial culture procedure. […] The growth medium was composed of RPM1640 medium (Gibco 32404-014), 10% heat inactivated (HI) serum (Gibco A3840102), Pen/Strep (Quality Biologics 118-089-721), 10 mM Hepes (Quality Biologics 118-089-721), 2 mM Glutamax (GIBCO 35050-061), 100 μg/mL normocin (Invivogen ant-nr), 100 μg/mL Zeocin (Invivogen ant-zn). The growth medium was freshly prepared once a week and sterile filtered. Assay medium consisted of RPMI 1640 medium, 10 mM Hepes, 2 mM Glutamax and Pen/Strep. To the assay medium, 1 μg/mL LPS (Invivogen tlrl-3pelps) was added. A cell suspension was prepared with assay medium and LPS at 1.25M cells per mL. With an electronic pipet, 80 μl of cell suspension was added to U bottom 96 well polystyrene plates (VWR 10062-902) leaving columns 1 and 2 empty. The plates were placed in the incubator for 4 hours. […] DMSO). An hour prior to the end of LPS incubation, a separate 96 deep well plate, Plate B, was prepared with 400 μL of assay media per well, then 2 μL of the stock DMSO solution from Plate A was added to each corresponding well. Plate B was covered to avoid media evaporation. In a 50 mL tube, a solution of nigericin in assay media at […] concentration was prepared. To a new 96 deep well plate, Plate C, 200 μL of this nigericin containing media was dispensed to each well and […] of the test compounds from Plate A to each corresponding well was added. Plate C was covered to avoid media evaporation. After 4 hours of priming, all the media from the LPS treated THP-1 cells in the initial U bottom plate was removed manually. To this plate of primed cells, 80 μL/well test compounds from Plate B was added in duplicate columns (5 compounds tested per plate). The plate was placed in an incubator for 30 min. […] The plate was placed back in the incubator for 1 hour. At the end of 1 hour, the supernatant from this test plate was transferred to a new 96 well V bottom polypropylene plate which was frozen immediately at -80° C. The plate was transferred to -20° C. the next day and awaiting further determination of cytokine IL-1β level. The release of IL-1β into the cell media was determined by MSD® Multi-Spot Assay System (V-Plex, IL-1B kit, […]-4). Following the manufacture's protocol and using the Alternate Protocol 3, Dilute-In-Plate protocol specifically, the level of IL-1β in the above collected supernatant plate was measured as electrochemiluminescent signals. Using MSD DISCOVERY WORKBENCH® analysis software, the signals were converted to the concentration of IL-1β in each well. The IC50 values of the compounds were calculated using the Graph Pad Prism software based on the […] concentration determined. The detection range of IL-1β using MSD kit was approximately […] (based on various lots of standards purchased from MSD).

SMILES: Cn1nc(S(=O)(=O)NC(=O)Nc2c3c(c(F)c4c2CCC4)CCC3)cc1CN1CCC[C@@H]1CO [Example 63, (R)-N-((8-fluoro-1,2,3,5,6,7-hexahydro-s-indacen-4-yl)carbamoyl)-5-((2-(hydroxymethyl)pyrrolidin-1-yl)methyl)-1-methyl-1 H-pyrazole-3-sulfonamide]
- IC50 [1]: 5 to 50 nM
- IC50 [2]: 5 to 50 nM

SMILES: CC(C)n1nc(S(=N)(=O)NC(=O)Nc2c3c(cc4c2CCC4)CCC3)cc1CN1CC(O)C1 (stereo not drawn) [Example 19, N-((1,2,3,5,6,7-hexahydro-s-indacen-4-yl)carbamoyl)-5-((3-hydroxyazetidin-1-yl)methyl)-1-isopropyl-1H-pyrazole-3-sulfonimidamide]
- IC50 [1]: 5 to 50 nM
- IC50 [2]: < 5 nM

SMILES: Cn1nc(S(=O)(=O)NC(=O)Nc2c3c(c(F)c4c2CCC4)CCC3)cc1CNCC1(O)CCC1 [Example 59, N-((8-fluoro-1,2,3,5,6,7-hexahydro-s-indacen-4-yl)carbamoyl)-5-((((1-hydroxycyclobutyl)methyl)amino)methyl)-1-methyl-1H-pyrazole-3-sulfonamide]
- IC50 [1]: 5 to 50 nM
- IC50 [2]: 5 to 50 nM

SMILES: Cn1nc(S(=O)(=O)NC(=O)Nc2c3c(c(F)c4c2CCC4)CCC3)cc1CN1CC[C@H](O)C1 [Example 60, (S)-N-((8-fluoro-1,2,3,5,6,7-hexahydro-s-indacen-4-yl)carbamoyl)-5-((3-hydroxypyrrolidin-1-yl)methyl)-1-methyl-1H-pyrazole-3-sulfonamide]
- IC50 [1]: 50 to 500 nM
- IC50 [2]: 5 to 50 nM

SMILES: Cc1oc(S(=O)(=O)NC(=O)Nc2c3c(c(F)c4c2CCC4)CCC3)cc1CN1C[C@@H](O)[C@H](F)C1 [Example 43, N-((8-fluoro-1,2,3,5,6,7-hexahydro-s-indacen-4-yl)carbamoyl)-4-(((3R,4R)-3-fluoro-4-hydroxypyrrolidin-1-yl)methyl)-5-methylfuran-2-sulfonamide]
- IC50 [1]: 5 to 50 nM
- IC50 [2]: < 5 nM

SMILES: Cc1oc(S(=O)(=O)NC(=O)Nc2c3c(c(Cl)c4c2CCC4)CCC3)cc1CN(C)CC1(O)CCC1 [Example 48, N-((8-chloro-1,2,3,5,6,7-hexahydro-s-indacen-4-yl)carbamoyl)-4-((((1-hydroxycyclobutyl)methyl)(methyl)amino)methyl)-5-methylfuran-2-sulfonamide]
- IC50 [1]: 5 to 50 nM
- IC50 [2]: < 5 nM

SMILES: CN(Cc1coc(S(=O)(=O)NC(=O)Nc2c3c(cc4c2CCC4)CCC3)c1)CC1(O)CCC1 [Example 33, N-((1,2,3,5,6,7-hexahydro-s-indacen-4-yl)carbamoyl)-4-((((1-hydroxycyclobutyl)methyl)(methyl)amino)methyl)furan-2-sulfonamide]
- IC50 [1]: 5 to 50 nM
- IC50 [2]: 5 to 50 nM

SMILES: Cc1oc(S(=N)(=O)NC(=O)Nc2c3c(cc4c2CCC4)CCC3)cc1CN(C)CC1(CO)CCC1 (stereo not drawn) [Example 9, N-((1,2,3,5,6,7-hexahydro-s-indacen-4-yl)carbamoyl)-4-((((1-(hydroxymethyl)cyclobutyl)methyl)(methyl)amino)methyl)-5-methylfuran-2-sulfonimidamide]
- IC50 [1]: 5 to 50 nM
- IC50 [2]: < 5 nM

SMILES: CC(C)n1nc(S(=N)(=O)NC(=O)Nc2c3c(cc4c2CCC4)CCC3)cc1CN1CCC[C@@H]1CO (stereo partly drawn) [Example 20, N-((1,2,3,5,6,7-hexahydro-s-indacen-4-yl)carbamoyl)-5-(((R)-2-(hydroxymethyl)pyrrolidin-1-yl)methyl)-1-isopropyl-1H-pyrazole-3-sulfonimidamide]
- IC50 [1]: 5 to 50 nM
- IC50 [2]: < 5 nM

SMILES: Cc1oc(S(=O)(=O)NC(=O)Nc2c3c(c(F)c4c2CCC4)CCC3)cc1CN1CCC[C@H]1CO [Example 44, (S)-N-((8-fluoro-1,2,3,5,6,7-hexahydro-s-indacen-4-yl)carbamoyl)-4-((2-(hydroxymethyl)pyrrolidin-1-yl)methyl)-5-methylfuran-2-sulfonamide]
- IC50 [1]: 5 to 50 nM
- IC50 [2]: 5 to 50 nM

Next, values leading:

- IC50 [1]: < 5 nM
- IC50 [2]: < 5 nM
SMILES: CN(CC1(O)CCC1)C(=O)c1coc(S(=N)(=O)NC(=O)Nc2c3c(cc4c2CCC4)CCC3)c1 (stereo not drawn) [Example 4, 5-(N-((1,2,3,5,6,7-hexahydro-s-indacen-4-yl)carbamoyl)sulfamidimidoyl)-N-((1-hydroxycyclobutyl)methyl)-N-methylfuran-3-carboxamide]

- IC50 [1]: 5 to 50 nM
- IC50 [2]: 5 to 50 nM
SMILES: Cn1nc(S(=O)(=O)NC(=O)Nc2c3c(c(F)c4c2CCC4)CCC3)cc1CN1CCC[C@H]1CO [Example 62, (S)-N-((8-fluoro-1,2,3,5,6,7-hexahydro-s-indacen-4-yl)carbamoyl)-5-((2-(hydroxymethyl)pyrrolidin-1-yl)methyl)-1-methyl-1H-pyrazole-3-sulfonamide]

- IC50 [1]: < 5 nM
- IC50 [2]: < 5 nM
SMILES: CC(C)NCc1coc([S@](=N)(=O)NC(=O)Nc2c3c(c(F)c4c2CCC4)CCC3)c1 (single isomer, unassigned) [Example 31]

- IC50 [1]: < 5 nM
- IC50 [2]: < 5 nM
SMILES: Cc1oc(S(=N)(=O)NC(=O)Nc2c3c(cc4c2CCC4)CCC3)cc1CN1CCC[C@@H]1CO (stereo partly drawn) [Example 7, N-((1,2,3,5,6,7-hexahydro-s-indacen-4-yl)carbamoyl)-4-(((R)-2-(hydroxymethyl)pyrrolidin-1-yl)methyl)-5-methylfuran-2-sulfonimidamide]

- IC50 [1]: < 5 nM
- IC50 [2]: < 5 nM
SMILES: Cc1oc(S(=N)(=O)NC(=O)Nc2c3c(cc4c2CCC4)CCC3)cc1CN1CCC[C@H]1CO (stereo partly drawn) [Example 8, N-((1,2,3,5,6,7-hexahydro-s-indacen-4-yl)carbamoyl)-4-(((S)-2-(hydroxymethyl)pyrrolidin-1-yl)methyl)-5-methylfuran-2-sulfonimidamide]
